Assay results: article PMC10040144 (ACS infectious diseases, 2022)

Assays:
E. coli MG1655 [1] = test: Phase-contrast imaging of treated cells; format: cell-based; conditions: Figure S5
PBP1b = PBP1b (Escherichia coli, UniProt P02919); format: cell-based, Escherichia coli MG1655
PBP1a = PBP1a (Escherichia coli, UniProt P02918); format: cell-based, Escherichia coli MG1655
PBP3 = PBP3 (Escherichia coli, UniProt P0AD68); format: cell-based, Escherichia coli MG1655
PBP2 = PBP2 (Escherichia coli, UniProt P0AD65); format: cell-based, Escherichia coli MG1655
PBP4 [2] = target: T1, PBP4 (Escherichia coli, UniProt P24228); format: cell-based, Escherichia coli MG1655; conditions: for Bocillin-FL labeling of PBP4 at high inhibitor concentration: 10 mM inhibitor, all three biological replicates
PBP7 = PBP7 (Escherichia coli, UniProt P0AFI5); format: cell-based, Escherichia coli MG1655
PBP5/6 = format: cell-based, Escherichia coli MG1655; conditions: 10 mM inhibitor, all three biological replicates
PBP4 [3] = target: T1, PBP4; test: Meropenem titration against the PBPs in cell lysate; format: binding; conditions: E. coli MG1655 lysate, in vitro (Figure S3)
PBP4 [4] = conditions: read-out: reported IC50 values PBP4; literature range; cited from earlier work
E. coli MG1655 [5] = test: Growth curve analysis of viability after permeabilization; conditions: 200 μM in Tris for 30 min, then LB broth 37 °C, A600 over 18 h
[6] = 10 mM inhibitor, all three biological replicates

Molecule	IC50 (PBP1b) [µM]	IC50 (PBP1a) [µM]	IC50 (PBP3) [µM]	IC50 (PBP2) [µM]	IC50 (PBP4 [2]) [µM]	IC50 (PBP7) [µM]	further results
O=C(O)CN(CCN(CC(=O)O)CC(=O)O)CC(=O)O [Tris-EDTA, ethylenediaminetetraacetic acid]	–	–	–	–	–	–	cell morphology by phase-contrast imaging (E. coli MG1655 [1]): little difference in the morphologies; fold increases in PBP labeling in comparison to Tris alone (PBPs; cotreatment with 25 μM Bocillin-FL in 50 mM Tris-200 μM EDTA, 30 min): 1.2–5 fold; fold increases in Bocillin-FL labeling in comparison to the original DC2 method (PBPs; vs 7.5 μM Bocillin-FL in PBS, 10 min): 2 to 61 fold
NC(=O)[C@@H]1CC[C@@H]2CN1C(=O)N2OS(=O)(=O)O [avibactam]	310 ± 460	> 10000	> 10000	< 100	> 10000	–	–
C[C@H]1[C@H](NC(=O)/C(=N\OC(C)(C)C(=O)O)c2csc(N)n2)C(=O)N1S(=O)(=O)O [aztreonam]	1.6 ± 0.9	970 ± 940	–	> 10000	> 10000	–	Bocillin-FL labeling of PBP7 at high inhibitor concentration (PBP7; [6]): increased Bocillin-FL labeling; Bocillin-FL labeling of PBP2 at high inhibitor concentration (PBP2; [6]): increased Bocillin-FL labeling; Bocillin-FL labeling of PBP4 at high inhibitor concentration (PBP4 [2]): increased Bocillin-FL labeling
N[C@@H](C(=O)N[C@@H]1C(=O)N2C(C(=O)O)=C(Cl)CS[C@H]12)c1ccccc1 [cefaclor]	> 10000	> 10000	15 ± 14	360 ± 210	> 10000	86 ± 66	Bocillin-FL labeling of PBP5/6 at high inhibitor concentration (PBP5/6): labeling was increased
CO/N=C(\C(=O)N[C@@H]1C(=O)N2C(C(=O)[O-])=C(C[N+]3(C)CCCC3)CS[C@H]12)c1csc(N)n1 [cefepime]	2.6 ± 2.4	5.5 ± 2.6	< 0.0001	0.2 ± 0.1	> 10000	–	Bocillin-FL labeling of PBP5/6 at high inhibitor concentration (PBP5/6): increased Bocillin-FL labeling; Bocillin-FL labeling of PBP4 at high inhibitor concentration (PBP4 [2]): increased Bocillin-FL labeling
CO/N=C(\C(=O)N[C@@H]1C(=O)N2C(C(=O)O)=C(CSc3nc(=O)c(=O)[nH]n3C)CS[C@H]12)c1csc(N)n1 [ceftriaxone]	0.2 ± 0.2	4.9 ± 2.2	–	1.5 ± 0.9	3 ± 8	9.5 ± 9.8	–
CO/N=C(\C(=O)N[C@@H]1C(=O)N2C(C(=O)O)=C(COC(N)=O)CS[C@H]12)c1ccco1 [cefuroxime]	1.6 ± 1.9	73 ± 42	0.02 ± 0.01	91 ± 65	24 ± 22	25 ± 31	–
CC1=C(C(=O)O)N2C(=O)[C@@H](NC(=O)[C@H](N)c3ccccc3)[C@H]2SC1 [cephalexin]	> 10000	> 10000	–	–	68 ± 79	200 ± 250	–
C[C@@H](O)[C@H]1C(=O)N2C(C(=O)O)=C([C@H]3CCCO3)S[C@H]12 [faropenem]	0.4 ± 0.2	6.4 ± 3.6	–	0.04 ± 0.04	2 ± 1.6	1.2 ± 1.8	–
C[C@@H](O)[C@H]1C(=O)N2C(C(=O)O)=C(S[C@@H]3CN[C@H](C(=O)N(C)C)C3)[C@H](C)[C@H]12 [meropenem]	110 ± 86	> 10000	–	0.01	> 10000	–	PBP4 inhibition in lysate (PBP4 [3]): no PBP4 inhibition; IC50 (PBP4 [4]): 0.0001 to 0.01 µM
COc1cccc(OC)c1C(=O)N[C@@H]1C(=O)N2[C@@H]1SC(C)(C)[C@@H]2C(=O)O [methicillin]	–	> 10000	–	–	87 ± 51	58 ± 70	–
CC1(C)S[C@@H]2[C@H](NC(=O)Cc3ccccc3)C(=O)N2[C@H]1C(=O)O [penicillin G]	1.5 ± 0.7	170 ± 93	15 ± 9	65 ± 36	–	–	–
CCN1CCN(C(=O)N[C@@H](C(=O)N[C@@H]2C(=O)N3[C@@H]2SC(C)(C)[C@@H]3C(=O)O)c2ccccc2)C(=O)C1=O [piperacillin]	12 ± 7.4	17 ± 15	–	2.8 ± 2.8	25 ± 24	2.3 ± 2.5	–
colistin	–	–	–	–	–	–	lag in growth (E. coli MG1655 [5]): ~ 10 h
